Measured values as given in patent publication US20260033491A1, “FUNGAL SPORE FORMULATIONS INCLUDING CARRIER FLUIDS” (priority 2018, published 2026).

Legend:
[1] = system: I. fumosorosea spores; assay: Spore viability (germination rate) of Isaria fumosorosea spores dispersed in fluid and stored at 30° C.; format: cell-based; conditions: I. fumosorosea spores in fluid; for spore viability [%] after 1 m (27 d) / spore viability [%] after 7 m (210 d): storage at 30° C.
Method: (§1) 1.5 g of I. fumosorosea pure spore powder were transferred into a formulation vessel (IKA Type DT-20 mixing vessel with dispersion tool for Ultra Turrax) using a sterile spoon. 13.5 mL of fluid were added into the respective formulation vessel and dispersed using ultra turrax tube drive control for 1 min at 3000 rpm; change direction after 30 sec. After this 2.8 mL were transferred in four sample bottles (Wheaton Serum vial, Type I) leaving little headspace and closed tight using crimpneck caps (Macherey—Nagel type N 13) Afterwards all sample bottles were transferred to an incubator set at 30° C. and stored for a given time.
In regular intervals a sample was retrieved from the storage location and analyzed for spore viability. Therefore the original samples were thoroughly homogenized. Aliquots of 0.25 g or 250 μL of each sample were transferred into 50 mL falcon tubes. The tubes were filled up to 25 g using a sterile aqueous solution containing 2% Tween 80 and homogenized by vortexing to achieve the first dilution step (1:100 dilution). This dilution was used for further dilution and spotting on agar.
Not all samples mixed well or mixed at all in 2% Tween 80. For these samples, an alternative dispersion/dilution method was applied where the oil phase is stripped from the spores first: 0.25 g or 250 μL of sample were weighted into a 2 mL Eppendorf tube, and 0.5 mL of 2% Tween 80 was added, and the mixture was transferred into an Eppendorf centrifuge where it was centrifuged for 1 min at 10.000 rpm. The supernatant (=upper oily phase) was discarded by using a pipette. Afterwards 250 μL of Breakthru S 240 were added and the spores were well dispersed. 250 μL or 0.25 g of each sample were transferred into a sterile 50 mL Falcon tube. The tubes were filled up to 25 g using a sterile aqueous solution containing 2% Tween 80 and homogenized by vortexing to achieve the first dilution step (1:100 dilution). This dilution was used for further dilution and spotting on agar.
(§2) For evaluation of spore germination rate prepare a 1:15000 dilution based on the 1:100 dilution achieved by multiple automated dilution (pipetting robot, 96 well plate). Afterwards 12×12 cm agar plates are taken and spotted with 10 times 5 μL of each sample using an automated 12-Channel pipet. Wait until liquid is soaked up by agar and transfer agar plate to an incubator and incubate at 23° C. for 16 hours. Open the plate and place it under the microscope. Randomly chose one area per spot and record the number of germinated and non-germinated spores that are within the designated field. At least 200 spores per sample need to be evaluated. If needed count more than one field per spot.

[2] = system: Beauveria bassiana spores; assay: Spore viability (germination rate) of Beauveria bassiana spores dispersed in fluid and stored at 30° C.; format: cell-based; conditions: Beauveria bassiana spores in fluid; for spore viability [%] after 2 w (14 d) / spore viability [%] after 5 w (35 d): storage at 30° C.
Method: as §1, with “Beauveria bassiana” for “I. fumosorosea”
In regular intervals a sample was retrieved from the storage location and analyzed for spore viability. Therefore the original samples were thoroughly homogenized. Aliquots of 0.25 g or 250 μL of each sample are transferred into 50 mL falcon tubes. The tubes were filled up to 25 g using a sterile aqueous solution containing 2% Tween 80 and homogenized by vortexing to achieve the first dilution step (1:100 dilution). This dilution was used for further dilution and spotting on agar.
For these samples, an alternative dispersion/dilution method was applied where the oil phase is stripped from the spores first: 0.25 g or 250 μL of sample are weighted into a 2 mL Eppendorf tube, and 0.5 mL of 2% Tween 80 is added, and the mixture is transferred into an Eppendorf centrifuge where it is centrifuged for 1 min at 10.000 rpm. The supernatant (=upper oily phase) is discarded by using a pipette. […] 250 μL or 0.25 g of each sample are transferred into a sterile 50 mL Falcon tube. The tubes were filled up to 25 g using a sterile aqueous solution containing 2% Tween 80 and homogenized by vortexing to achieve the first dilution step (1:100 dilution). This dilution is used for further dilution and spotting on agar.
as §2, with “20°” for “23°”, “17” for “16”

## CCCCOC(=O)CCCCC(=O)OCCCC [Adimoll DB, di-n-Butyl adipate]
[1]
  spore viability [%] at day 1: 89.5%
  spore viability [%] after 1 m (27 d): 66.6%
  spore viability [%] after 7 m (210 d): 60.0%
[2]
  spore viability [%] at day 1: 87%
  spore viability [%] after 2 w (14 d): 66.1%
  spore viability [%] after 5 w (35 d): 37.7%

## CC(=O)OCC(COC(C)=O)OC(C)=O [Triacetin, Glycerin triacetate]
[1]
  spore viability [%] at day 1: 90%
  spore viability [%] after 1 m (27 d): 84.0%
  spore viability [%] after 7 m (210 d): 69.1%
[2]
  spore viability [%] at day 1: 89.3%
  spore viability [%] after 2 w (14 d): 58.6%
  spore viability [%] after 5 w (35 d): 31.6%
